Test results reported in patent EP2078717A1, “6-Pyrimidinyl-pyrimid-2-one derivative” (sanofi-aventis, priority 2008, dated 2009).
Like-named read-outs stand apart in the source and are kept apart here.

Assays:
scopolamine-treated mice = assay: Object recognition (OR) test of episodic memory in scopolamine-treated mice; settings: for recognition index (RI): scopolamine 1 mg/kg 30 minutes before acquisition, 3 hours inter-trial interval
normal mice = assay: Object recognition (OR) test of episodic memory in normal mice; type: in vivo; settings: for minimal effective dose: Mus musculus, po
tau phosphorylation = assay: Inhibitory activity on tau phosphorylation in vivo (pS396 Western blot of cortex); design: species or system male CD-1 mice; settings: 10 mg/kg p.o., cortex removed after 1 hour, pS396 antibody; ** means statistically significant
Procedure: Experiment 7 : Inhibitory activity on tau phosphorylation in vivo
Test compound was administrated to male CD-1 mice of 5-6 weeks weighing 25-35 g (Charles River Japan, inc.) at 10 mg/kg p.o. (0.5% polyethylene glycol sorbitan monolaurate 80 (Tween80)/water suspension) and after 1 hour, mice were decapitated and cortex was promptly removed, followed by being frozen in liquid nitrogen. […] Protein concentrations were determined using DC protein assay kit (BIO-RAD). Supernatants were diluted with sample buffer (62.5 mM Tris-HCl, 25% glycerol, 2% SDS, 0.01% Bromophenol Blue, pH 6.8) to adjust the protein concentrations around […] and then boiled for 5 minutes. Samples (10 µ g) were separated on 10% sodium dodecyl sulfate-polyacrylamide electrophoresis (SDS-PAGE) mini slab gels and transferred onto polyvinylidene difluoride (PVDF) membranes. Membranes were incubated with phosphate buffered saline (PBS) containing 5% non-fat milk for 1 hour at room temperature and then probed with pS396 anti-body (BIOSOURCE) over night at 4 °C. Anti-rabbit IgG horseradish peroxidase (HRP) conjugated antibody (Promega) was used as secondary antibody. Membranes were visualized by Enhanced ChemiLuminescence (ECL) kit (Amersham Bioscience) and detected by LAS 1000 (Fuji Photo Film).

**Q.** `Cc1nc(-c2ccc([C@H]3CN(c4nc(-c5ccncn5)cc(=O)n4C)CCO3)cc2)no1` [Compound of the present invention] was tested. Which minimal effective dose (scopolamine-treated mice; Mus musculus, po, read-out: Minimal Effective Dose, prevention of episodic memory deficits) did it give?
**A.** 10 mg/kg

**Q.** And the “recognition index (RI)” value (scopolamine-treated mice; 10 mg/kg p.o. 1 hour before acquisition)?
**A.** 52.7%

**Q.** And the “recognition index (RI)” value (scopolamine-treated mice; 30 mg/kg p.o. 1 hour before acquisition)?
**A.** 60.4%

**Q.** What about the “effect on episodic memory deficits induced by scopolamine” value (scopolamine-treated mice; single oral administration 3mg/kg) of the same compound?
**A.** ineffective

**Q.** What about the “effect on episodic memory deficits induced by scopolamine” value (scopolamine-treated mice; single oral administration 10 mg/kg, 30 minutes before scopolamine, 1 hour before acquisition) of the same compound?
**A.** totally reversed

**Q.** What about the “recognition index (RI)” value (normal mice; 1 mg/kg p.o. 1 hour before acquisition and retention sessions, 24 hours inter-trial interval) of the same compound?
**A.** 50.3%

**Q.** And the “recognition index (RI)” value (normal mice; 3 mg/kg p.o. 1 hour before acquisition and retention sessions, 24 hours inter-trial interval)?
**A.** 52.6%

**Q.** What about the “recognition index (RI)” value (normal mice; 3 mg/kg p.o. once immediately after the acquisition phase, 24 hours inter-trial interval) of the same compound?
**A.** 54.6%

**Q.** And the “recognition index (RI)” value (normal mice; 10 mg/kg p.o. 1 hour before acquisition and retention sessions, 24 hours inter-trial interval)?
**A.** 60.4%

**Q.** What about the “recognition index (RI)” value (normal mice; 10 mg/kg p.o. once immediately after the acquisition phase, 24 hours inter-trial interval) of the same compound?
**A.** 58.6%

**Q.** What about the “recognition index (RI)” value (normal mice; 30 mg/kg p.o. 1 hour before acquisition and retention sessions, 24 hours inter-trial interval) of the same compound?
**A.** 62.9%

**Q.** And the “recognition index (RI)” value (normal mice; 30 mg/kg p.o. once immediately after the acquisition phase, 24 hours inter-trial interval)?
**A.** 60.0%

**Q.** What about the minimal effective dose (normal mice; normal mice, summary, read-out: minimal effective dose, increases episodic memory and consolidates episodic memory trace) of the same compound?
**A.** 10 mg/kg

**Q.** And the minimal effective dose (normal mice; p.o. 1 hour before acquisition and retention sessions, 24 hours inter-trial interval, read-out: dose from which memory performance increased significantly)?
**A.** ≥ 10 mg/kg

**Q.** What about the minimal effective dose (normal mice; p.o. once immediately after the acquisition phase, read-out: minimal effective dose, consolidation of episodic memory) of the same compound?
**A.** 10 mg/kg

**Q.** What about the “recognition index (RI)” value (normal mice; normal mice of the scopolamine experiment, 10 mg/kg p.o. 1 hour before acquisition, 3 hours inter-trial interval) of the same compound?
**A.** 61.7%

**Q.** What about the “recognition index (RI)” value (normal mice; normal mice of the scopolamine experiment, 30 mg/kg p.o. 1 hour before acquisition, 3 hours inter-trial interval) of the same compound?
**A.** 59.7%

**Q.** What about the “in vivo 10 mg/kg, % phosphorylation against vehicle” value (shortened to “in vivo 10 mg/kg, % phosphorylation”) (tau phosphorylation) of the same compound?
**A.** 58.14** %

**Q.** With `Cn1c(N2CCOC(c3nc(-c4ccccc4)no3)C2)nc(-c2ccncn2)cc1=O` (centres unmarked) [compound 1] as the compound, how does the “in vivo 10 mg/kg, % phosphorylation” value (tau phosphorylation) read?
**A.** 92.12%

**Q.** For `Cn1c(N2CCOC(c3noc(-c4ccccc4)n3)C2)nc(-c2ccncn2)cc1=O` (centres unmarked) [compound 2, 1-Methyl-2-[2-(5-phenyl-[1,2,4]oxadiazol-3-yl)-morpholin-4-yl]-1H-[4,4']bipyrimidinyl-6-one], which “in vivo 10 mg/kg, % phosphorylation” value (tau phosphorylation) is on record?
**A.** 79.21%

**Q.** How did the “in vivo 10 mg/kg, % phosphorylation” value (tau phosphorylation) turn out when `Cn1c(N2CCOC(c3ccc(-c4ccoc4)cc3)C2)nc(-c2ccncn2)cc1=O` (centres unmarked) [compound 3, 2-[2-(4-Furan-3-yl-phenyl)-morpholin-4-yl]-1-methyl-1H-[4,4']bipyrimidinyl-6-one] was run?
**A.** 71.44%

**Q.** With `Cn1ccnc1-c1ccc(C2CN(c3nc(-c4ccncn4)cc(=O)n3C)CCO2)cc1` (centres unmarked) [compound 4, 1-Methyl-2-{2-[4-(1-methyl-1H-imidazol-2-yl)-phenyl]-morpholin-4-yl}-1H-[4,4']bipyrimidinyl-6-one] as the compound, how does the “in vivo 10 mg/kg, % phosphorylation” value (tau phosphorylation) read?
**A.** 71.21%

**Q.** How did the “in vivo 10 mg/kg, % phosphorylation” value (tau phosphorylation) turn out when `Cn1c(N2CCOC(c3ccc(-n4cccn4)cc3)C2)nc(-c2ccncn2)cc1=O` (centres unmarked) [compound 5, 1-Methyl-2-[2-(4-pyrazol-1-yl-phenyl)-morpholin-4-yl]-1H-[4,4']bipyrimidinyl-6-one] was run?
**A.** 53.35** %
